Data as given in patent US20020115661A1, “Method for treating chronic obstructive pulmonary disease” (priority 2000, published 2002).

Assays:
[1] = target: T1, rat ETA receptors (Rattus norvegicus, UniProt P26684); assay: [125I]ET-1 binding, membranes from rat A10 cells
T1 construct: endogenous in cells
T1 sequence (P26684 21-426): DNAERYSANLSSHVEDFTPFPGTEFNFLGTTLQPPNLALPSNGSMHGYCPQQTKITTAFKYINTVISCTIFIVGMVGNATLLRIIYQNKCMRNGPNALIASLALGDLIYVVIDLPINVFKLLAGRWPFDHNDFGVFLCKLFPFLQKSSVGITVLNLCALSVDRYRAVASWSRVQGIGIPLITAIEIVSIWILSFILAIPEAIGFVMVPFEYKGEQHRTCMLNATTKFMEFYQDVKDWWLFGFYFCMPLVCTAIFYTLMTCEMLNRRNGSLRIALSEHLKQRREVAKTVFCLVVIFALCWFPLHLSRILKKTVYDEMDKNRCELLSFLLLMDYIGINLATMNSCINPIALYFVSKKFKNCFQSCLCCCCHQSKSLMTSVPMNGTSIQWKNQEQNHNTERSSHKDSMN
Excerpt: (§1) Relative binding activities are given below in TABLE 3.

[2] = target: T2, dog ETA receptors (Canis lupus familiaris, UniProt Q5KSU9); assay: [125I]ET-1 binding, membranes from dog cardiac ventricle
T2 construct: from tissue
T2 sequence (Q5KSU9 21-426): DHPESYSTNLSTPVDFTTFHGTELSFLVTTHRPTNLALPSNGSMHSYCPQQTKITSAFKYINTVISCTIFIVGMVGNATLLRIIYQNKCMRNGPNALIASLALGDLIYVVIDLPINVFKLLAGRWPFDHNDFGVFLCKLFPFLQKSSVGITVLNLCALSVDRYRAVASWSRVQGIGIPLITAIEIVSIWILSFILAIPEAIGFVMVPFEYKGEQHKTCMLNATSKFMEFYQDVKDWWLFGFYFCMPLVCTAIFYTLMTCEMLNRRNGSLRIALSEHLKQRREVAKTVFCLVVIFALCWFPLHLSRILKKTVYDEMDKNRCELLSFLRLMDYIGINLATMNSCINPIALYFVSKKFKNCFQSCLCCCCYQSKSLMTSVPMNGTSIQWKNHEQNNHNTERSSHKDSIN
Excerpt: as §1

[3] = target: T3, human ETA receptor signaling (Homo sapiens, UniProt P25101); assay: ET-1 induced Ca2+ transient (Calcium Green-1) in human pulmonary artery smooth muscle cells; assay type: cell-based; settings: hPASMC, ET-1 100 nM; read-out: IC50, inhibition of ET-1 Ca2+ response
T3 construct: endogenous in cells; host or cells: human pulmonary artery smooth muscle cells (hPASMC)
T3 sequence (P25101 21-427): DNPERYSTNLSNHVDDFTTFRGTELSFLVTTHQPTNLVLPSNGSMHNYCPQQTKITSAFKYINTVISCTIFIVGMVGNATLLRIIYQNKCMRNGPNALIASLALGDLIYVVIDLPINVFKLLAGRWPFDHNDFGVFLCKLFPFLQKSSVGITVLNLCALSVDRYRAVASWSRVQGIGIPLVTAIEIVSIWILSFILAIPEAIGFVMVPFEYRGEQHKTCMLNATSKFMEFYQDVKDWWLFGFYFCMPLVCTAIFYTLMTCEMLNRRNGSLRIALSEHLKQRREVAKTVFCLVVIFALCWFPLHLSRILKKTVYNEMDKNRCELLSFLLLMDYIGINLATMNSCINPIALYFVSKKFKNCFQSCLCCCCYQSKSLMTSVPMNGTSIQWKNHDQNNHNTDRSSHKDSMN

[4] = target: T4, ETA receptor (Oryctolagus cuniculus, UniProt A5A8K3); assay: ET-1 induced contraction in isolated rabbit femoral artery
T4 sequence (A5A8K3 21-427): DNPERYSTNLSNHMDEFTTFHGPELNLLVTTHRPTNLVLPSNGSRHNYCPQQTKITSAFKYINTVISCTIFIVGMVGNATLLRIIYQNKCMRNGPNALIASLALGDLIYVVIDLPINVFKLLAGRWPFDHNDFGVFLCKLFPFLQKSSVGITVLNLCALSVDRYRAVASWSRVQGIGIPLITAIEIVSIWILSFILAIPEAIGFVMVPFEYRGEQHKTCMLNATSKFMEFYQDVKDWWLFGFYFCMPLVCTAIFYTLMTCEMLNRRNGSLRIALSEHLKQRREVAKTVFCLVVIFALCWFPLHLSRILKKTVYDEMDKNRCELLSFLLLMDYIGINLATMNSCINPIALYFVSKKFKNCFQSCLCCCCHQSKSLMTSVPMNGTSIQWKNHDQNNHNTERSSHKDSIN
Protocol: In rabbit femoral artery vasculature, the receptor responsible for mediating the contractile activity of ET-1 appears to be predominantly the ETA receptor subtype, whereas in the rabbit pulmonary artery the contractile activity of ET-1 appears to be mediated by both ETA and ETB receptors.
In rabbit femoral and pulmonary arteries, ET-1 produced concentration-dependent increases in contractile tension starting at 1 nM.

[5] = CI-1034 plasma concentration after oral dose in rats; assay type: in vivo; settings: rat, 24 hours after 30 mg/kg oral dose
Excerpt: Vehicle-treated rats responded to the bET-1 challenge with peak increases in mean arterial pressure (MAP) of 58±2 mm Hg (N=7); baseline MAP was 82±5 mm Hg.

[6] = Thermal properties, hygroscopicity and stability; assay type: physicochemical
[7] = Pharmacokinetics in dogs; assay type: in vivo; settings: dog
[8] = tested on: rat, dog, monkey, and human hepatocyte preparations; assay: Incubations with hepatocyte preparations; assay type: in vitro ADME; settings: monkey, and human hepatocytes
[9] = Food effect (high-fat meal) single-dose study in healthy subjects; assay type: in vivo, human; settings: for Tmax: human, plasma, oral, 150 mg
[10] = Plasma CI-1034 concentrations in anesthetized dogs; assay type: in vivo; settings: intravenous, dog; for concentration at 15 min: 15 minutes postdose; for concentration at 30 min: 30 minutes postdose; for concentration at 60 min: 60 minutes postdose

Molecule `CCc1cc(C2=C(C(=O)[O-])N(c3ccccc3C(F)(F)F)S(=O)(=O)c3ccccc32)cc2c1OCO2.[K+]` [CI-1034, 4-(7-Ethyl-1,3-benzodioxol-5-yl)-2-[2-(trifluoromethyl)phenyl]-2H-1 ,2-benzothiazine-3-carboxylic acid 1,1-dioxide monopotassium salt] has an IC50 [1] of 3.3 nM, an IC50 [2] of 2 nM and an IC50 [3] of 0.22 nM. The “potency at blocking ETA versus ETB receptor signaling” value ([4]; isolated rabbit vasculature, femoral versus pulmonary artery KB) was 389 fold, the “effect on ET-1 induced maximal contraction” value ([4]; rabbit femoral artery) was “not affected” and the Schild regression slope ([4]; rabbit femoral artery, r=0.99) was 0.88. For the same molecule, the concentration at 24 h [5] was 0.16 ± 0.01 µg/mL, the Hygroscopicity [6] was “Hygroscopicity: CI-1034 is moderately hygroscopic” and the Stability on storage ([6]; 4 weeks at 80° C. or 40° C. and 70% relative humidity) was “CI-1034 was stable for 4 weeks when stored at 80 °C or 40 °C and 70% relative humidity. CI-1034 does not need special storage requirements, other than the usual protection from light”. The “thermally stable up to” value ([6]; begins to melt with decomposition) was “Thermal Properties: CI-1034 is thermally stable up to approximately 300° C., where it begins to melt with decomposition”, the Stability ([6]; exposed to hydrogen peroxide) was “No significant degradation” and the Stability ([6]; exposed to simulated sunlight) was “# peroxide. In contrast, samples exposed to simulated sunlight showed degradation”. The Stability ([6]; heated in acid, base, or water, protected from light) was “stable”, the bioavailability ([7]; in vivo, po, dogs) was roughly 100% and the “increase of plasma concentrations with dose” value ([7]; up to 100 mg/kg) was “approximately proportional to dose”. For the same molecule, the “metabolic profiles across species” value [8] was “qualitatively similar metabolic profiles”, the Tmax ([9]; fasted state) was 1.26 h and the Tmax ([9]; with high-fat meal) was 3.5 h. The “mean AUC(0-∞) lower with high-fat breakfast versus fasted” value ([9]; single dose) was “approximately 16%”, the “mean Cmax lower with high-fat breakfast versus fasted” value ([9]; single dose) was “approximately 50%” and the concentration at 15 min ([10]; 30 mg/kg) was 221 µg/mL. The concentration at 30 min ([10]; 30 mg/kg) was 209 µg/mL, the concentration at 60 min ([10]; 30 mg/kg) was 157 µg/mL and the concentration at 5 min ([10]; 40 mg/kg, 5 minutes postdose, N = 1) was 395 µg/mL. It also gave a concentration at 15 min ([10]; 40 mg/kg, N = 1) of 327 µg/mL, a concentration at 30 min ([10]; 40 mg/kg, N = 1) of 267 µg/mL and a concentration at 60 min ([10]; 40 mg/kg, N = 1) of 230 µg/mL. The concentration at 15 min ([10]; 60 mg/kg) was 427 µg/mL, the concentration at 30 min ([10]; 60 mg/kg) was 367 µg/mL and the concentration at 60 min ([10]; 60 mg/kg) was 337 µg/mL.
